{"source": "patent US20190209501A1", "about": "“COMPOSITIONS AND METHODS OF USE OF BETA-HYDROXY-BETA-METHYLBUTYRATE (HMB) […] IN[…]” (Texas Tech University Office of Research Commercialization, priority 2018, published 2019)", "key": {"[1]": {"conditions": "3 g/d Calcium-HMB without intermittent fasting + RT, cited from earlier work"}, "[2]": {"test": "Urinary HMB concentrations", "assay_type": "in vivo, human", "conditions": "for Urinary HMB concentration, Intervention: during intervention, 3 g/d calcium HMB", "description": "At baseline and after 4 and 8 weeks of the intervention, participants completed two testing sessions: (1) a morning assessment conducted after an overnight fast for assessment of body composition, metabolism, vascular measures and subjective factors: and (2) an afternoon assessment of muscular performance, conducted in the non-fasted state. For morning assessments, participants reported to the laboratory after abstention from eating, drinking, exercising and utilizing caffeine or nicotine for ≥8 hours. Participants were interviewed to confirm adherence to these pre-assessment restrictions. The actual abstention from exercise was ≥14 hours due to the scheduling of exercise sessions. Participants reported to the laboratory wearing athletic clothing, and all metal and accessories were removed from the body prior to testing. Each participant voided her bladder and provided a urine sample. Urine samples were assessed for urine specific gravity (USG) using a digital refractometer (PA201X-093. Misco, Solon, Ohio. USA). Additionally, a standard urinary HCG test was performed to confirm that each participant was not pregnant. Finally, urinary samples were frozen at −80° C. for assessment of urinary HMB content after study unblinding. After voiding, each participant's body mass (BM) and height were determined via digital scale with stadiometer (Seca 769, Hamburg, Germany). Blood draws were performed at Texas Tech University Student Health Services after an overnight fast, and participants completed at-home saliva collections for assessment of the cortisol awakening response (CAR)."}, "[3]": {"test": "Isokinetic squat peak force on mechanized squat device", "assay_type": "in vivo, human", "conditions": "for PFCON ES (d) / PFECC ES (d): Cohen's d baseline vs week 8; for PFCON Δ (%) / PFECC Δ (%): change baseline to week 8 relative to baseline; for PFCON (N) Week 4 / PFCON (N) Week 8: concentric peak force; for PFCON (N) Week 4 / PFCON (N) Week 8 / PFECC (N) Week 4 / PFECC (N) Week 8: mean ± SE; for PFECC (N) Week 4 / PFECC (N) Week 8: eccentric peak force; for PFCON (N) Δ / PFECC (N) Δ: week 8 minus baseline", "description": "Assessments of muscular performance took place between 12:00 and 18:00 in the non-fasted state, and participants were instructed to follow their preferred food and fluid intake patterns prior to testing. The assessment began with a 5-minute warm up period using a self-selected pace on a stationary bicycle. This warm up period was followed by assessment of countermovement vertical jumps (CMVJ) performance, testing on a mechanized squat device, and muscular strength and endurance assessment on the bench press and hip sled exercises. At the 4-week assessment, the CMVJ and hip sled assessments were not performed.\nIsometric and isokinetic squats were performed using a mechanized squat device (Exerbotics eSq, Tulsa, Okla., USA) (31, 32). At the first assessment, each participant's preferred foot positioning was determined using a custom grid overlaid on the foot platform of the squat device. This foot positioning was recorded and utilized for all visits. No weight belts, knee wraps, or other aids were utilized during testing. Prior to testing, the participant's range of motion for isokinetic testing was determined. The range of motion was set to 90° between the thigh and lower leg at the bottom of the repetition and approximately 170° at the top of the repetition, as determined by a goniometer. The isometric testing included maximal effort pushes at 120° and 150° knee angles. Each participant was instructed to push against the device as hard and fast as possible while attempting to complete a squat movement. Two isometric pushes were performed at each knee angle, and each effort lasted approximately 2 to 3 seconds. After the isometric testing, a 3-repetition maximum isokinetic force production test was completed. Prior to testing, participants observed the movement of the machine and received verbal instruction regarding proper performance of the assessment. Each of the repetitions during the maximal isokinetic force production test consisted of a 4-second eccentric phase, followed by an approximately half-second pause at the 90° knee position and a 4-second concentric phase. During testing, the force signal was sampled from the load cell at 1 kHz (MP100; Biopac Systems, Inc, Santa Barbara, Calif., USA), stored on a personal computer, and processed off-line using custom-written software (LabVIEW, Version 11.0; National Instruments, Austin, Tex., USA). The scaled force signal was low-pass filtered, with a 10-Hz cutoff (zero-phase lag, fourth-order Butterworth filter). All subsequent analyses were conducted on the scaled and filtered force signal. For the isometric force production tests, the rate of force development (RFD) over specific time intervals (i.e. 30, 50, 100 and 200 ms) was calculated by manually specifying the onset of force production within the custom LabVIEW program. For each repetition of the maximum isokinetic force production test, isokinetic peak forces (PF) were determined as the highest mean 25-ms epoch for both concentric and eccentric testing (i.e. PFCONC and PFECC)."}, "[4]": {"conditions": "approximate; cited from earlier work"}}, "data": [{"compound": "CC(C)(O)CC(=O)O", "note": "[TRFHMB, β-hydroxy-β-methylbutyrate]", "values": [{"measurement": "BF % after 4 weeks", "setting": "[1]; females n=18, from 23.7±1.1, nonsignificant", "result": "23.0±1.2", "unit": "%"}, {"measurement": "BF % 4-week Δ-change", "setting": "[1]", "result": "−0.7", "unit": "%"}, {"measurement": "Urinary HMB concentration, Intervention", "setting": "[2]; ITT analysis", "result": "5033 ± 751", "unit": "nmol/mL"}, {"measurement": "Urinary HMB concentration, Intervention", "setting": "[2]; PP analysis", "result": "6553 ± 1117", "unit": "nmol/mL"}, {"measurement": "Change in urinary HMB concentrations from pre-intervention to intervention", "setting": "[2]; both ITT and PP analyses", "result": "increased significantly"}, {"measurement": "Average effect size for tests of lower body force generation (1RMLP, PFCON, PFECC, RFD)", "setting": "[3]; Cohen's d, vs 0.3-0.4 in TRF or CD", "result": "0.6-0.7"}, {"measurement": "PFCON ES (d)", "setting": "[3]; ITT analysis", "result": 0.83}, {"measurement": "PFECC ES (d)", "setting": "[3]; ITT analysis", "result": 0.60}, {"measurement": "PFCON Δ (%)", "setting": "[3]; ITT analysis", "result": 29, "unit": "%"}, {"measurement": "PFECC Δ (%)", "setting": "[3]; ITT analysis", "result": 19, "unit": "%"}, {"measurement": "PFCON (N) Week 4", "setting": "[3]; ITT analysis", "result": "1195 ± 92", "unit": "N"}, {"measurement": "PFCON (N) Week 8", "setting": "[3]; ITT analysis", "result": "1324 ± 112", "unit": "N"}, {"measurement": "PFECC (N) Week 4", "setting": "[3]; ITT analysis", "result": "1301 ± 93", "unit": "N"}, {"measurement": "PFECC (N) Week 8", "setting": "[3]; ITT analysis", "result": "1407 ± 95", "unit": "N"}, {"measurement": "PFCON (N) Δ", "setting": "[3]; ITT analysis", "result": 295, "unit": "N"}, {"measurement": "PFECC (N) Δ", "setting": "[3]; ITT analysis", "result": 223, "unit": "N"}, {"measurement": "PFCON ES (d)", "setting": "[3]; PP analysis", "result": 0.95}, {"measurement": "PFECC ES (d)", "setting": "[3]; PP analysis", "result": 0.48}, {"measurement": "PFCON Δ (%)", "setting": "[3]; PP analysis", "result": 31, "unit": "%"}, {"measurement": "PFECC Δ (%)", "setting": "[3]; PP analysis", "result": 14, "unit": "%"}, {"measurement": "PFCON (N) Week 4", "setting": "[3]; PP analysis", "result": "1247 ± 133", "unit": "N"}, {"measurement": "PFCON (N) Week 8", "setting": "[3]; PP analysis", "result": "1418 ± 154", "unit": "N"}, {"measurement": "PFECC (N) Week 4", "setting": "[3]; PP analysis", "result": "1311 ± 136", "unit": "N"}, {"measurement": "PFECC (N) Week 8", "setting": "[3]; PP analysis", "result": "1475 ± 133", "unit": "N"}, {"measurement": "PFCON (N) Δ", "setting": "[3]; PP analysis", "result": 336, "unit": "N"}, {"measurement": "PFECC (N) Δ", "setting": "[3]; PP analysis", "result": 184, "unit": "N"}, {"measurement": "Loss of HMB to urine after HMB is fed", "setting": "[4]", "result": "20-50%"}]}]}
